Results reported in PMC12040169 (PLOS Biology, 2025).

Assay: in vitro
Conditions: human, hela cells, % viability

Row | Compound | viability at 28.5 h, 10 µM
1 | O=S(=O)(Nc1cccc2[nH]ccc12)c1ccc(F)cc1 [CBK153522] | 60.9%
2 | O=S(=O)(Nc1cccc2[nH]ccc12)c1sc(Cl)cc1Br [CBK153552] | 69%
3 | O=S(=O)(Nc1cccc2cc[nH]c12)c1cc(Cl)ccc1Cl [CBK153581] | 84.6%
4 | O=S(=O)(CC(F)(F)F)Nc1cccc2cc[nH]c12 [CBK153585] | 99.5%
5 | O=S(=O)(Nc1cccc2cc[nH]c12)c1ccc(F)cc1F [CBK153586] | 85.3%
6 | N#CCCCN1CCC(Oc2nccnc2OCc2c(F)cccc2Cl)CC1 [CBK153630] | 102%
7 | N#CCCCN1CCC(Oc2nccnc2OCc2ccccc2C(F)(F)F)CC1 [CBK153636] | 102%
8 | N#CCCCN1CCC(Oc2nccnc2OCc2cccc(C(F)(F)F)c2F)CC1 [CBK153646] | 100%
9 | CN(C)C(=O)c1ccc(Cn2ccnc(N3CCC(Sc4ccccc4)CC3)c2=O)cc1 [CBK153651] | 107%
10 | CN(C)C(=O)Cc1ccc(Cn2ccnc(N3CCC(Sc4ccccc4)CC3)c2=O)cc1 [CBK153652] | 112%
11 | N#Cc1ccc(Cn2ccnc(N3CCC(Sc4ccccc4)CC3)c2=O)cc1 [CBK153653] | 98.2%
12 | O=c1c(N2CCC(Sc3ccccc3)CC2)nccn1Cc1ccc([N+](=O)[O-])cc1 [CBK153654] | 108%
13 | O=c1c(N2CCC(Sc3ccccc3)CC2)nccn1Cc1ccc(-n2cncn2)cc1 [CBK153655] | 90.9%
14 | CCOC(=O)c1c(C)nc2ccccc2c1O [CBK153666] | 110%
15 | O=C(c1cnoc1-c1ccc(F)cc1)N1CCCC1 [CBK153707] | 97.9%
16 | O=C(NCc1cccc(C(F)(F)F)c1)c1cnoc1-c1ccc(Br)cc1 [CBK153718] | 96.9%
17 | CS(=O)(=O)c1ccc(Cn2ccnc(N3CCN(C(=O)Cc4cccs4)CC3)c2=O)cc1 [CBK153773] | 89.9%
18 | CS(=O)(=O)c1ccc(Cn2ccnc(N3CCN(C(=O)c4ccc5occc5c4)CC3)c2=O)cc1 [CBK153777] | 90.8%
19 | COC(=O)c1ccc(CN2CCC(Oc3nccnc3OCc3ccc(Cl)c(Cl)c3)CC2)o1 [CBK153782] | 84.2%
20 | O=C(CN1CCC(Oc2nccnc2OCc2ccc(Cl)c(Cl)c2)CC1)Nc1ccccc1 [CBK153783] | 110%
21 | Cc1nc(CN2CCC(Oc3nccnc3OCc3ccc(Cl)c(Cl)c3)CC2)cs1 [CBK153787] | 95.9%
22 | Clc1ccc(COc2nccnc2OC2CCN(Cc3ccncc3)CC2)cc1Cl [CBK153792] | 107%
23 | O=C(NCc1cccs1)c1cnoc1-c1ccc([N+](=O)[O-])cc1 [CBK153845] | 82.9%

Row | Compound | viability at 28.5 h, 10 µM
24 | O=C(OCc1ccccc1)N1CCC(c2nc3ccc(Br)cc3[nH]2)CC1 [CBK153849] | 93.7%
25 | CCc1ccc(CNC(=O)Cn2nnc(-c3ccc(CN4CCC(C)CC4)cn3)n2)cc1 [CBK153928C] | 93.6%
26 | CCOc1ccc(OC(=O)C2CCN(C(=O)CC(C)C)CC2)cc1 [CBK154228] | 95.3%
27 | O=S(=O)(CC(F)(F)F)Nc1cccc(-c2nnn[nH]2)c1 [CBK154272] | 83.9%
28 | O=S(=O)(Nc1ccc(-c2nnn[nH]2)cc1)c1cc(Cl)c(Cl)s1 [CBK154745] | 116%
29 | O=S(=O)(CC(F)(F)F)Nc1ccc(-c2nnn[nH]2)cc1 [CBK154754] | 107%
30 | O=S(=O)(Nc1ccc(-c2nnn[nH]2)cc1)c1ccc(F)c(C(F)(F)F)c1 [CBK154759] | 96.9%
31 | COc1ccc(OC(=O)C2CCN(C(=O)CC(C)C)CC2)c([N+](=O)[O-])c1 [CBK154770] | 97.4%
32 | COc1cccc(C(=O)N2CCN(C(=O)Nc3ccsc3)CC2)c1 [CBK154782] | 91.5%
33 | COc1cccc(C(=O)N2CCN(C(=O)Nc3ccccc3Br)CC2)c1 [CBK154783] | 94.4%
34 | COc1cccc(C(=O)N2CCN(C(=O)Nc3ccc(C(F)(F)F)cc3)CC2)c1 [CBK154788] | 96.4%
35 | O=C(NCC1CCOCC1)c1cc(-c2cccnc2)cnc1NCc1ccc2c(c1)OCO2 [CBK154825] | 104%
36 | Cc1ccc(CNCCn2nnc(-c3ccc(CN4CCC(C)CC4)cc3)n2)cc1 [CBK154882T] | 93.3%
37 | O=C(NCc1ccc(OC(F)(F)F)cc1)c1cnoc1-c1ccc(Br)cc1 [CBK154885] | 100%
38 | Cc1cnc(CNC(=O)c2cnoc2-c2ccccc2)cn1 [CBK154926] | 98%
39 | O=C(NCc1ccc(OC(F)(F)F)cc1)c1cnoc1-c1ccc(F)cc1 [CBK154952] | 100%
40 | O=C(NCc1ccco1)c1cnoc1-c1ccc(F)cc1 [CBK154960] | 116%
41 | CNC(=O)c1c(C)nc2ccccc2c1SCCC(=O)O [CBK154987T] | 101%
42 | CS(=O)(=O)c1ccc(CN2C(=O)CC3(CCN(C(=O)Cc4cccs4)CC3)C2=O)cc1 [CBK155013] | 100%
43 | CC(C)(C)c1ccc(C(=O)N2CCC3(CC2)CC(=O)N(Cc2ccc(S(C)(=O)=O)cc2)C3=O)cc1 [CBK155018] | 106%
44 | COc1cccc(C(=O)N2CCC(NC(=O)Cc3ccc(F)cc3)CC2)c1 [CBK155027] | 85%
45 | O=S(=O)(Nc1cccc(-c2nnn[nH]2)c1)c1sc(Cl)cc1Br [CBK155035] | 94.6%
46 | CS(=O)(=O)c1ccc(-c2ccc(OC3CCN(C(=O)CCCc4ccc(F)cc4)CC3)nc2)cc1 [CBK155044] | 94.8%

Row | Compound | viability at 28.5 h, 10 µM
47 | CN(C)C(=O)c1ccc(-c2ccc(OC3CCN(C(=O)CC(C)(C)c4ccccc4)CC3)nc2)cc1 [CBK155047] | 101%
48 | CN(C)C(=O)c1ccc(-c2ccc(OC3CCN(C(=O)CCC(=O)N4CCCC4)CC3)nc2)cc1 [CBK155051] | 108%
49 | O=C(O)c1cccc(NS(=O)(=O)c2ccc(OC(F)(F)F)cc2)c1 [CBK155077] | 92.7%
50 | Cn1nc(-c2ccc(S(=O)(=O)Nc3cccc(C(=O)O)c3)s2)cc1C(F)(F)F [CBK155080] | 86.9%
51 | O=C(O)c1cccc(NS(=O)(=O)c2ccc(CNC(=O)c3ccc(Cl)cc3)s2)c1 [CBK155085] | 104%
52 | CN(C)CCN(Cc1ccccc1)C(=O)NCc1c(Cl)cccc1Cl [CBK155107] | 97.3%
53 | CCN(Cc1ccncc1)C(=O)NCCCSC [CBK155125] | 88.8%
54 | CCN(Cc1ccncc1)C(=O)NCc1cnc(C)cn1 [CBK155128] | 105%
55 | CCN(Cc1ccncc1)C(=O)Nc1ccc(N(CC)CC)cc1 [CBK155141] | 90.3%
56 | CCN(Cc1ccncc1)C(=O)NCCOc1ccccc1 [CBK155148] | 100%
57 | CCN(Cc1ccncc1)C(=O)NCCc1ccc(OC)cc1 [CBK155149] | 94.6%
58 | CN1CCN(CCCNC(=O)N2CCN(c3ccccc3)CC2)CC1 [CBK155168] | 101%
59 | Cc1cnc(CNC(=O)N2CCN(c3ccccc3)CC2)cn1 [CBK155174] | 101%
60 | O=C(NCc1cccc2ccccc12)N1CCN(c2ccccc2)CC1 [CBK155175] | 89.1%
61 | O=C(NC(c1ccccc1)c1ccccc1)N1CCN(c2ccccc2)CC1 [CBK155177] | 90.7%
62 | O=C(NCCN1CCOCC1)N1CCN(c2ccccc2)CC1 [CBK155180] | 83.8%
63 | COCCNC(=O)N1CCN(c2ccccc2)CC1 [CBK155181] | 96.1%
64 | O=C(Nc1ccc2c(c1)OCCO2)N1CCN(c2ccccc2)CC1 [CBK155187] | 94.7%
65 | O=C(NCc1ccc(Cl)cc1)N1CCN(c2ccccc2)CC1 [CBK155193] | 97.9%
66 | O=C(NCC(c1ccccc1)c1ccccc1)N1CCN(c2ccccc2)CC1 [CBK155197] | 89.8%
67 | O=C(NCCOc1ccccc1)N1CCN(c2ccccc2)CC1 [CBK155198] | 88.5%
68 | COc1ccc(CCNC(=O)N2CCN(c3ccccc3)CC2)cc1 [CBK155199] | 96.8%
69 | CCN(CC)CCNC(=O)N1CCN(c2ccccc2)CC1 [CBK155202] | 116%

Row | Compound | viability at 28.5 h, 10 µM
70 | CC(C)CCNC(=O)N1CCN(c2ccccc2)CC1 [CBK155203] | 101%
71 | CC(NC(=O)N1CCN(c2ccccc2)CC1)c1ccccc1 (centres unmarked) [CBK155207] | 99.3%
72 | CCN(Cc1ccccc1)C(=O)NCCCN1CCN(C)CC1 [CBK155212] | 102%
73 | CCN(Cc1ccccc1)C(=O)NCCCSC [CBK155214] | 94.3%
74 | CCN(Cc1ccccc1)C(=O)NCc1cnc(C)cn1 [CBK155218] | 107%
75 | CCN(Cc1ccccc1)C(=O)NCCc1c[nH]cn1 [CBK155220] | 92.8%
76 | CCN(Cc1ccccc1)C(=O)NCCc1c[nH]c2ccc(OC)cc12 [CBK155226] | 87%
77 | CCN(Cc1ccccc1)C(=O)Nc1ccc2[nH]ccc2c1 [CBK155229] | 95.2%
78 | CCN(Cc1ccccc1)C(=O)Nc1ccc2c(c1)OCCO2 [CBK155231] | 100%
79 | CCN(Cc1ccccc1)C(=O)Nc1ccc(C)cc1 [CBK155248] | 99.1%
80 | CCOC(=O)CCCNC(=O)N(CC)Cc1ccccc1 [CBK155252] | 106%
81 | COc1ccc(C(=O)N(C)C2CCN(C)C2)cc1Nc1cncc(-c2cc3ccccc3[nH]2)n1 (centres unmarked) [CBK155260T] | 108%
82 | CSc1nnc(N(C)S(=O)(=O)c2ccc(C)cc2)s1 [CBK155272] | 87.2%
83 | N#Cc1ccc(CNC(=O)N2CCc3ccccc3C2)cc1 [CBK155287] | 107%
84 | NC(=O)CCNC(=O)N1CCc2ccccc2C1 [CBK155288] | 104%
85 | Cc1ccc(NC(=O)N2CCc3ccccc3C2)cc1 [CBK155309] | 93.6%
86 | CSCCCNC(=O)N(CCc1ccccc1)Cc1ccccc1 [CBK155317] | 87.2%
87 | N#Cc1cccc(S(=O)(=O)Nc2ccc(-c3nnn[nH]3)cc2)c1 [CBK155427] | 95.5%
88 | O=C(N1CCc2ccc(S(=O)(=O)Nc3ccc(-c4nnn[nH]4)cc3)cc2C1)C(F)(F)F [CBK155437] | 99.9%
89 | CCc1c(C)nc2ccccc2c1SCCOC(=O)Nc1ccccc1 [CBK155466T] | 85.6%
